{"source": "patent US9445588B2", "about": "“Methods for increasing oil palm yield” (Valent BioSciences Corporation, priority 2014, dated 2016)", "key": {"oil palm fruit": {"tested_on": "oil palm fruit", "details": "preharvest application to attached bunches of oil palm fruit; cited from earlier work"}, "oil palm [1]": {"tested_on": "oil palm", "test": "Oil quality (free fatty acid content) of oil from AVG-HCl treated oil palms", "assay_type": "in vivo", "details": "Rath and Shashikant 2014, Valent BioSciences technical information"}, "oil palm [2]": {"tested_on": "oil palm", "test": "Second field study, repeat preharvest AVG sprays every 20 days, harvest 10 days after treatment (Example 2)", "assay_type": "in vivo, oil palm (bi-clonal DxP palms)", "details": "AVG 500 ppm", "protocol": "Plant material: A second field study was executed in a plantation in Malaysia to compare the effects of repeat broadcast directed bunch applications of AVG to the untreated control (UTC). For both treatments, 148 palms per block with 4 rows per block covering about 1.1 ha were used. The bi-clonal DxP palms were 3 to 4 years old. Treatment application: A motorized mist blower was used to apply AVG (500 ppm at 600 mL/plant or 300 mg/palm/application) to the lower and most mature rows of bunches of each palm plant. The time required for 360 degree spray application per palm plant was about 30 seconds. Treatments were applied every 20 days and harvests of treated palms were 10 days after treatments. Untreated bunches were harvested every 10 days. Treatments were applied from September to November 2013. Oil yield: Oil yield was determined as kg oil/bunch=oil content*bunch wt. […] Oil yield was 2.80 kg/bunch for the AVG treatment and 2.51 kg/bunch for the UTC."}, "oil palm [3]": {"tested_on": "oil palm", "test": "Field study, repeat bunch-directed preharvest application of AVG every 10 days (Example 1)", "assay_type": "in vivo, oil palm (bi-clonal DxP palms)", "protocol": "Plant material: A field study was executed in a plantation in Malaysia to compare the effects of repeat bunch-directed applications of AVG to the untreated control (UTC). In this study, AVG was provided in a formulation as AVG-HCl at a concentration of 20% w/wt. For both treatments, 148 palms per block with 4 rows per block covering about 1.1 hectare were used. The bi-clonal DxP palms were 3 to 4 years old.\nTreatment application: A motorized mist blower was used to apply AVG (500 ppm, at 600 mL/palm or 300 mg/palm/application) to the lower and most mature rows of bunches of each palm.\nThe time required for 360 degree spray application around each palm was about 30 seconds. Sprays were applied every 10 days which coincided with harvest frequency in this block. Treatments were applied from September to November 2013.\nHarvest: Harvest picks occurred every 10 days. Bunches were harvested at the point of initial fruit drop. At harvest, UTC bunches had lost an average of 34.8 fruit/bunch and the AVG-treated bunches had lost 33.9 fruits/bunch. Bunch weight results were recorded over six harvests picks for the 10 representative palms that were tagged for each treatment.\nOil content: At each harvest pick beginning with the fourth harvest pick interval, bunches were selected and individually bagged, tagged, and transferred to the laboratory for determination of oil content. Bunch samples from each harvest were analyzed in the laboratory for oil content using standard methods (Blaak, et al., 1963, J. West African Institute of Oil Palm Research, 4:146-155).\nOil yield: Oil yield was determined as kg oil/bunch=oil content*bunch wt. […] Oil yield was 2.85 kg/bunch for the AVG treatment and 2.56 kg/bunch for the UTC."}}, "data": [{"smiles": "O=P(O)(O)CCCl", "note": "[ethephon, 2-chloroethyl phosphonic acid]", "values": [{"measurement": "Increase in oil content", "setting": "oil palm fruit", "value": 7, "unit": "%"}]}, {"smiles": "Cl.NCCO/C=C/[C@H](N)C(=O)O", "note": "[AVG-HCl]", "values": [{"measurement": "Free fatty acid content of the oil", "setting": "oil palm [1]", "value": "did not have increased free fatty acid content"}]}, {"smiles": "NCCO/C=C/[C@H](N)C(=O)O", "note": "(stereo in doubt) [AVG, [S]-trans-2-amino-4-(2-aminoethoxy)-3-butenoic acid]", "values": [{"measurement": "Average Bunch Weight", "setting": "oil palm [2]; 600 mL/plant", "value": 9.36, "unit": "kg/bunch"}, {"measurement": "Oil Yield (oil content*bunch wt)", "setting": "oil palm [2]; 600 mL/plant", "value": 2.80, "unit": "kg oil/bunch"}, {"measurement": "Average Oil Content", "setting": "oil palm [2]; 600 mL/plant (300 mg/palm/application)", "value": 0.299, "unit": "oil wt/bunch wt"}, {"measurement": "Average Oil Content", "setting": "oil palm [3]; AVG 500 ppm, 600 mL/palm (300 mg/palm/application), sprays every 10 days, bunches from fourth harvest pick on", "value": 0.284, "unit": "oil wt/bunch wt"}, {"measurement": "Oil Yield (oil content*bunch wt)", "setting": "oil palm [3]; AVG 500 ppm, 600 mL/palm, sprays every 10 days", "value": 2.85, "unit": "kg oil/bunch"}, {"measurement": "Average Bunch Weight", "setting": "oil palm [3]; AVG 500 ppm, 600 mL/palm, sprays every 10 days, six harvest picks, 10 tagged palms", "value": 10.02, "unit": "kg/bunch"}, {"measurement": "Average fruit lost per bunch at harvest", "setting": "oil palm [3]; bunches harvested at the point of initial fruit drop, UTC 34.8 fruit/bunch", "value": 33.9, "unit": "fruits/bunch"}]}]}
